From patent US20230109839A1, “THERAPEUTIC AGENT FOR TAUOPATHIES” (SUMITOMO PHARMA CO., LTD., priority 2020, published 2023) come the findings set out here.

Molecules are shown by their SMILES.

One assay concerns the target T1, human Nav1.1 (Homo sapiens, UniProt P35498).
T1 construct: host or cells: HEK293
Kind of assay: Amplification of Nav1.1-derived voltage-gated sodium current (Nav1.1 current), automated patch clamp (Test 1). Format: cell-based. The following applies: Concentration for evaluation 1 μM; HEK293 cell line stably expressing human Nav1.1. The essentials:
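HEK293 cells stably expressing human Nav1.1, restricted to cells with >500 pA current, were recorded by automated voltage-clamp patch clamp with a ramp voltage stimulus. Compounds were applied in HEPES-buffered extracellular solution with 1% DMSO. Amplification (%) = 100×(peak or AUC after/before compound)−100.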
Regarding `CN(c1cnc2cnn(CC(=O)Nc3ccc4ccncc4n3)c2n1)C1CC1` [Example 724], the “Nav1.1 current amplification rate (%)” value turned out to be 28%.

In the case of `CN(CC1CCCC1)c1cnc2cnn(CC(=O)Nc3ccn4ncnc4c3)c2n1` [Example 626], the “Nav1.1 current amplification rate (%)” value was determined as 200%.

`CC1CC=C(c2ccc(=O)n(CC(=O)N3CCc4c3ccnc4C3=CCOC3)n2)CC1` (stereo not drawn) [Example 284]: the “Nav1.1 current amplification rate (%)” value came out at 91%.

Consider `CC1CC=C(c2ccc(=O)n(CC(=O)N3CCc4c(N5CCOCC5)cccc43)n2)CC1` (stereo not drawn) [Example 245], for which the “Nav1.1 current amplification rate (%)” value worked out at 393%.

On to `O=C(Cn1ncc2cnc(N3CCC4(CCC4)C3)nc21)Nc1ccn2ncnc2c1` [Example 765], for which the “Nav1.1 current amplification rate (%)” value came to 25%.

As for `CC1CC=C(c2ccc(=O)n(CC(=O)N3CCc4c3ccnc4-c3cn[nH]c3)n2)CC1` (stereo not drawn) [Example 285], the “Nav1.1 current amplification rate (%)” value worked out at 113%.

As to `CC1CC=C(c2cnc3cnn(CC(=O)Nc4ccc5cncnc5c4)c3n2)CC1` (stereo not drawn) [Example 641], the “Nav1.1 current amplification rate (%)” value is listed as 361%.

With `CN(c1cnc2cnn(CC(=O)Nc3ccc4cnccc4c3)c2n1)C1CC1` [Example 706], the “Nav1.1 current amplification rate (%)” value came to 195%.

Staying with this assay, now noted: Concentration for evaluation 3 μM; HEK293 cell line stably expressing human Nav1.1.
With `CN(c1cnc2cnn(CC(=O)N3CCc4cc(C#N)ccc43)c2n1)C1CCC1` [Example 691], the “Nav1.1 current amplification rate (%)” value came out at 11%.

For `CC1CC=C(c2ccc(=O)n(CC(=O)Nc3ccc4oc(CN5CCOCC5)nc4c3)n2)CC1` (stereo not drawn) [Example 331], the “Nav1.1 current amplification rate (%)” value is listed as 64%.

In the case of `CC1CC=C(c2ccc(=O)n(CC(=O)N3CCc4c(C5CN(CCO)C5)cccc43)n2)CC1` (stereo not drawn) [Example 303], the “Nav1.1 current amplification rate (%)” value came out at 67%.

Staying with this assay, now noted: Concentration for evaluation 10 μM; HEK293 cell line stably expressing human Nav1.1.
Turning to `CC1CCN(c2ccc(=O)n(CC(=O)Nc3ccc4ncn(C)c4c3)n2)CC1` [Example 85], the “Nav1.1 current amplification rate (%)” value was found to be 15%.

As to `N#Cc1ccc(NC(=O)Cn2nc(N3CC4CC4C3)ccc2=O)cc1` (stereo not drawn) [Example 18], the “Nav1.1 current amplification rate (%)” value was 11%.

For the compound `COc1cc(C2=CCC(C)(C)CC2)nn(CC(=O)Nc2ccn3ccnc3c2)c1=O` [Example 456], the “Nav1.1 current amplification rate (%)” value is recorded as 224%.

As for `Cc1nccn1-c1cccc(NC(=O)Cn2nc(N3CCC(C)CC3)ccc2=O)c1` [Example 75], the “Nav1.1 current amplification rate (%)” value was found to be 15%.

`N#Cc1ccc(NC(=O)Cn2nc(N3CCCC4(CC4)C3)ccc2=O)cc1` [Example 20]: the “Nav1.1 current amplification rate (%)” value is 152%.

On to `CC(C)(C)C1CCN(c2ccc(=O)n(CC(=O)Nc3ccc(C#N)cc3)n2)CC1` [Example 6], for which the “Nav1.1 current amplification rate (%)” value was determined as 35%.

On to `CC1CCN(c2ccc(=O)n(CC(=O)Nc3cncnc3)n2)CC1` [Example 56], for which the “Nav1.1 current amplification rate (%)” value was found to be 10%.

The same assay, now with this note: Concentration for evaluation 50 μM; HEK293 cell line stably expressing human Nav1.1.
Consider `COC1CN(Cc2cncc(NC(=O)Cn3nc(C4=CCC(C)CC4)ccc3=O)c2)C1` (stereo not drawn) [Example 366], for which the “Nav1.1 current amplification rate (%)” value turned out to be 37%.

For `Cc1ccc(-c2ncc3cnn(CC(=O)Nc4ccn5ncnc5c4)c3n2)o1` [Example 772], the “Nav1.1 current amplification rate (%)” value came out at 35%.

With `CC1CC=C(c2ccc(=O)n(CC(=O)N3CCc4c(C=C5CCNCC5)cccc43)n2)CC1` (stereo not drawn) [Example 293], the “Nav1.1 current amplification rate (%)” value came to 55%.

The assay is the same for the next values; noted with them: HEK293, Concentration for evaluation 1 μM; HEK293 cell line stably expressing human Nav1.1; read-out: Nav1.1 current amplification rate (%).
For `CN(c1cnc2cnn(CC(=O)Nc3cnc4cccnc4c3)c2n1)C1CC2(CC2)C1` [Example 752], the activation at 1 µM stood at 135%.

Staying with this assay, now noted: HEK293, Concentration for evaluation 10 μM; HEK293 cell line stably expressing human Nav1.1; read-out: Nav1.1 current amplification rate (%).
On to `N#Cc1cncc(NC(=O)Cn2nc(N3CCCCC3)ccc2=O)c1` [Example 108], for which the activation at 10 µM came out at 5%.

Staying with this assay, now noted: HEK293, concentration for evaluation 1 μM; HEK293 stably expressing human Nav1.1; read-out: Nav1.1 current amplification rate (%).
With `CC1CC=C(c2ccc3cnn(CC(=O)N4CCN(c5cccnc5)CC4)c3n2)CC1` (stereo not drawn) [Example 881], the activation at 1 µM is 446%.

Still in this assay, the particulars now being: concentration for evaluation 1 μM; HEK293 stably expressing human Nav1.1.
`O=C(Cn1ncc2ccc(C3=CCC(F)(F)CC3)nc21)Nc1ccn2ccnc2c1` [Example 867]: the “Nav1.1 current amplification rate (%)” value is 65%.

As to `COc1ccc(NC(=O)Cn2ncc3cnc(N4CCC5(CC5)C(F)(F)C4)nc32)cn1` [Example 825], the “Nav1.1 current amplification rate (%)” value is recorded as 30%.

As for `CN(c1ccc2cnn(CC(=O)Nc3ccn4ncnc4c3)c2n1)C1CCCC1` [Example 862], the “Nav1.1 current amplification rate (%)” value worked out at 97%.
